Literature values in patent US10350288B2, “Methods and compositions for treating herpes” (Genocea Biosciences, Inc., priority 2016, dated 2019).
Read-outs that look alike come from different tables or passages of the source.

Columns and labels:
HSV [1] = conditions: patients with genital herpes
HSV [2] = conditions: once-daily; efficacy comparable to valacyclovir twice daily for 3 days
HSV-2 [3] = system: HSV-2
HSV-2 [4] = conditions: human, in vivo

Compound: Nc1nc2c(ncn2CCC(CO)CO)c(=O)[nH]1 [Penciclovir, penciclovir]
- oral bioavailability: not orally bioavailable

Compound: Cc1nc(N(C)C(=O)Cc2ccc(-c3ccccn3)cc2)sc1S(N)(=O)=O [Pritelivir, pritelivir]
- reduction of viral shedding and lesion rate (HSV [1]): has shown efficacy

Compound: Cc1cccc(C)c1N(CC(=O)Nc1ccc(-c2ncon2)cc1)C(=O)C1CCS(=O)(=O)CC1 [amenamevir]
- time to lesion healing shortened by (HSV [2]): 1 to 2 days

Compound: CC(C)[C@H](N)C(=O)OCCOCn1cnc2c(=O)[nH]c(N)nc21 [valacyclovir]
- proportion of patients who remained recurrence-free (HSV-2 [3]; at 6 months, placebo 7%): 55%
- proportion of patients who remained recurrence-free (HSV-2 [3]; at 12 months, placebo 4%): 34%
- reduction of transmission of HSV-2 from infected persons to uninfected partners (HSV-2 [4]): 48%
